For the test, the target named is T1, mouse NPY5-receptor (mNPY5) (Mus musculus, UniProt O70342).
T1 construct: The full-length cDNA encoding the mouse NPY5 (mNPY5) receptor was amplified from mouse brain cDNA; expressed in transfected cells
T1 sequence (O70342 1-466): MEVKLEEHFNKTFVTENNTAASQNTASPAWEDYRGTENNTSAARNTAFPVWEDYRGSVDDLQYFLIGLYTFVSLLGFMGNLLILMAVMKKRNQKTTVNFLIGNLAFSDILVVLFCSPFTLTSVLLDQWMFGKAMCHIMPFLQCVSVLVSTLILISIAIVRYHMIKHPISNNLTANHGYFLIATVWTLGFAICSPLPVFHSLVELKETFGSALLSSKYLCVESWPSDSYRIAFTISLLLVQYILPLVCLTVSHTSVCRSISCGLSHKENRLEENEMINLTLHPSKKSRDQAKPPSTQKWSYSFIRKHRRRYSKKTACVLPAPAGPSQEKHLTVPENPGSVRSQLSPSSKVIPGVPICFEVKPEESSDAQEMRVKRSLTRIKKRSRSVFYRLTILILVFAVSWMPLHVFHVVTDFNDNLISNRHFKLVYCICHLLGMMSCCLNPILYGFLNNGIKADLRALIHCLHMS
Put plainly: Radioligand competition binding, [125I]PYY, membranes of HEK293 cells expressing recombinant mouse NPY5 receptor. The note with it: 100 pM [125I]labelled peptide YY, 1 h at 22° C. The text has this:
The full-length cDNA encoding the mouse NPY5 (mNPY5) receptor was amplified from mouse brain cDNA using specific primers, designed based on the published sequence, and Pfu DNA-Polymerase (Stratagene). The amplification product was subcloned into the mammalian expression vector pcDNA3 using Eco RI and XhoI restriction sites. Positive clones were sequenced and one clone, encoding the published sequence was selected for generation of stable cell clones.
Human embryonic kidney 293 (HEK293) cells were transfected with 10 μg mNPY5 DNA using the lipofectamine reagent (Gibco BRL) according to the manufacturer's instruction. Two days after transfection, geneticin selection (1 mg/ml) was initiated and several stable clones were isolated. One clone was further used for pharmacological characterization.
Human embryonic kidney 293 cells (HEK293), expressing recombinant mouse NPY5-receptor (mNPY5) were broken by three freeze/thawing cycles in hypotonic Tris buffer (5 mM, pH 7.4, 1 mM MgCl2), homogenized and centrifuged at 72,000×g for 15 min. The pellet was washed twice with 75 mM Tris buffer, pH 7.4, containing 25 mM MgCl2 and 250 mM sucrose, 0.1 mM phenylmethylsulfonylfluoride and 0.1 mM 1,10-pheneanthrolin, resuspended in the same buffer and stored in aliquots at −80° C. Protein was determined according to the method of Lowry using bovine serum albumine (BSA) as a standard.
For orientation: In a radioligand displacement assay an active substance lowers the binding of a labelled ligand.

For orientation: IC50 means the point on the concentration scale where inhibition reaches its midpoint. Take `Cc1cc(N2CCCC2)c2ccc(COc3ccc(C#N)cc3)cc2n1` [Example 5, 4-(2-Methyl-4-pyrrolidin-1-yl-quinolin-7-ylmethoxy)-benzonitrile]: the IC50 stood at 22 nM.

As for `Cc1cc(N2CCCC2)c2ccc(CNc3ccc(C#N)cc3)cc2n1` [Example 13, 4-[(2-Methyl-4-pyrrolidin-1-yl-quinolin-7-ylmethyl)-amino]-benzonitrile], the IC50 amounted to 130 nM.

The values are drawn from patent publication US7166589B2, “Quinoline derivatives” (Hoffmann-La Roche Inc., priority 2001, dated 2007).
